Measurements from article PMC4666032, “KPT-330, a potent and selective exportin-1 (XPO-1) inhibitor, shows antitumor effects modulating the expression of cyclin D1 and survivin in prostate cancer models” (BMC Cancer, 2015).

System: PC3 xenografts
Test: PC3 xenograft in male nude mice
Format: in vivo
Settings: for apoptosis in tumors (TUNEL staining) / cell proliferation in tumors (Ki-67 staining): KPT-251 100 mg/kg or KPT-330 10 mg/kg, sectioned tumors, PC3 xenografts (Fig. 7); for tumor weight: PC3 xenografts, PO Mon/Wed/Fri, vs vehicle
Source text: Male CD1 nude mice (Charles River, Milan, Italy) were maintained under the guidelines established by the University of L’Aquila, Medical School and Science and Technology School Board Regulations. Experiments on animals have been approved by your local IRB in compliance with the Italian government regulation n.116 January 27, 1992 for the use of laboratory animals which is line with ARRIVE guidelines. All mice received subcutaneous flank injections of 1 x 10^6 PC3, DU145 or 22v1 cells. Tumor growth was measured bi-weekly with a Vernier caliper (length x width). Tumor weight was calculated according to the formula: TW (mg) = tumor volume (mm^3) = d2 x D/2, where d and D are the shortest and longest diameters, respectively. The effects of the treatments were examined as previously described. Animals were sacrificed by carbon dioxide inhalation and tumors were subsequently removed surgically. A piece of tumor was frozen in liquid nitrogen for protein analysis and another piece was fixed in paraformaldehyde overnight for immunohistochemical analyses.
Mice were treated by oral gavage with either vehicle control (Pluronic F-68/PVP-K29/32), KPT330 or KPT251. Before tumor injection, animals were randomized into seven treatment groups as follows: Group 1: mice (10 animals) receiving 100 μl vehicle PO; Group 2: mice (10 animals) receiving 100 mg/kg KPT-251 every two days (Monday and Friday)/week PO; Group 3: mice (10 animals) receiving 30 mg/kg KPT-251 every two day/week PO; Group 4: mice (10 animals) receiving 10 mg/kg/day PO; Group 5: mice (10 animals) receiving 30 mg/kg KPT-330 every two days/week PO; Group 6: mice (10 animals) receiving 10 mg/kg KPT-330 every two days/week PO; Group 7: mice (10 animals) receiving 3 mg/kg/day KPT-330 PO. Treatments were started when tumor volumes reached approximately 80 mm^3 (Day 0) and were stopped after 28 days. The following parameters were used to quantify the antitumor effects upon different treatments: (1) tumor volume measured during and at the end of experiments, (2) tumor weight measured at the end of experiment, (3) complete response (CR) defined as the disappearance of the target lesion with respect to baseline, (4) partial response (PR) defined as a reduction of greater than 50 % of tumor volume with respect to baseline, (5) stable disease (SD) defined as a reduction of less than 50 % or an increase of less than 100 % of tumor volume with respect to baseline, (6) tumor progression (TP) defined as an increase of greater than […] of tumor volume with respect to baseline, (7) time to progression (TTP). In vivo, combinational studies were evaluated by CalcuSyn (Biosoft). For the calculation of CI, the values of cell kill for a fixed tumor volume were considered (determined by the log cell kill (LCK)). LCK was determined as LCKZ (TKC)/(3.3KTd), where Td represents the mean control group doubling time required to reach a fixed tumor volume, expressed in days, whereas T and C are the same values as described above.
To determine the effects of XPO-1 inhibition on prostate cancer growth in vivo, we used […] aggressive CRPC, PC3, DU145 and 22rv1, cell lines engrafted in male nude mice. Once tumors were established (80–100 mm3 in size), mice were divided into seven different groups (10 mice/group) and treated with varying doses of KPT-251 (10, 30, 100 mg/kg PO QoDx3) and KPT-330 (5, 10, 20 mg/kg PO QoDx3). Tumors were measured for 35 days. The effects of KPT-251 on tumor growth is shown in Fig. 5 and KPT-330 in Fig. 6. The mean tumor weight was calculated for each treatment group. […]

SMILES | apoptosis in tumors (TUNEL staining) | cell proliferation in tumors (Ki-67 staining) | tumor weight
FC(F)(F)c1cc(-c2ncn(/C=C\c3nnco3)n2)cc(C(F)(F)F)c1 [KPT-251] | increased apoptosis | decreased cell proliferation | reduce tumor weight in a dose-dependent manner
O=C(/C=C\n1cnc(-c2cc(C(F)(F)F)cc(C(F)(F)F)c2)n1)NNc1cnccn1 [KPT-330] | increased apoptosis | decreased cell proliferation | reduce tumor weight in a dose-dependent manner
